Data from ChEMBL document CHEMBL2331514, “Structure-based design and synthesis of novel pseudosaccharine derivatives as antiproliferative agents and kinase inhibitors” (Eur J Med Chem, 2013).

Assays:
Type in all cases: functional
NCI-H460 = experiment: Cytotoxicity against human NCI-H460 cells assessed as growth inhibition at 10 uM after 48 hrs by SRB assay; details: NCI-H460, 48 h, read-out: GI
IGROV-1 = experiment: Cytotoxicity against human IGROV1 cells assessed as growth inhibition at 10 uM after 48 hrs by SRB assay; details: IGROV-1, 48 h, read-out: GI
SK-OV-3 = experiment: Cytotoxicity against human SKOV3 cells assessed as growth inhibition at 10 uM after 48 hrs by SRB assay; details: SK-OV-3, 48 h, read-out: GI
HCT-15 = experiment: Cytotoxicity against human HCT15 cells assessed as growth inhibition at 10 uM after 48 hrs by SRB assay; details: HCT-15, 48 h, read-out: GI
MDA-MB-468 = experiment: Cytotoxicity against human MDA-MB-468 cells assessed as growth inhibition at 10 uM after 48 hrs by SRB assay; details: MDA-MB-468, 48 h, read-out: GI
OVCAR-5 = experiment: Cytotoxicity against human OVCAR5 cells assessed as growth inhibition at 10 uM after 48 hrs by SRB assay; details: OVCAR-5, 48 h, read-out: GI
786-0 = experiment: Cytotoxicity against human 786-0 cells assessed as growth inhibition at 10 uM after 48 hrs by SRB assay; details: 786-0, 48 h, read-out: GI
CCRF-CEM = experiment: Cytotoxicity against human CCRF-CEM cells assessed as growth inhibition at 10 uM after 48 hrs by SRB assay; details: read-out: GI
MOLT-4 = experiment: Cytotoxicity against human MOLT4 cells assessed as growth inhibition at 10 uM after 48 hrs by SRB assay; details: MOLT-4, 48 h, read-out: GI
COLO 205 = experiment: Cytotoxicity against human COLO205 cells assessed as growth inhibition at 10 uM after 48 hrs by SRB assay; details: COLO 205, 48 h, read-out: GI
SF-268 = experiment: Cytotoxicity against human SF268 cells assessed as growth inhibition at 10 uM after 48 hrs by SRB assay; details: SF-268, 48 h, read-out: GI
MDA-MB-435 = experiment: Cytotoxicity against human MDA-MB-435 cells assessed as growth inhibition at 10 uM after 48 hrs by SRB assay; details: MDA-MB-435, 48 h, read-out: GI
[1] = Cytotoxicity against human EKVX cells assessed as growth inhibition at 10 uM after 48 hrs by SRB assay; details: read-out: GI
U-251 = experiment: Cytotoxicity against human U251 cells assessed as growth inhibition at 10 uM after 48 hrs by SRB assay; details: U-251, 48 h, read-out: GI
UACC-257 = experiment: Cytotoxicity against human UACC257 cells assessed as growth inhibition at 10 uM after 48 hrs by SRB assay; details: UACC-257, 48 h, read-out: GI
HOP-62 = experiment: Cytotoxicity against human HOP62 cells assessed as growth inhibition at 10 uM after 48 hrs by SRB assay; details: HOP-62, 48 h, read-out: GI
HCT-116 = experiment: Cytotoxicity against human HCT116 cells assessed as growth inhibition at 10 uM after 48 hrs by SRB assay; details: HCT-116, 48 h, read-out: GI
SN12C = experiment: Cytotoxicity against human SN12C cells assessed as growth inhibition at 10 uM after 48 hrs by SRB assay; details: read-out: GI
NCI-H226 = experiment: Cytotoxicity against human NCI-H226 cells assessed as growth inhibition at 10 uM after 48 hrs by SRB assay; details: NCI-H226, 48 h, read-out: GI
SK-MEL-28 = experiment: Cytotoxicity against human SK-MEL-28 cells assessed as growth inhibition at 10 uM after 48 hrs by SRB assay; details: SK-MEL-28, 48 h, read-out: GI
NCI-H522 = experiment: Cytotoxicity against human NCI-H522 cells assessed as growth inhibition at 10 uM after 48 hrs by SRB assay; details: NCI-H522, 48 h, read-out: GI
HT-29 = experiment: Cytotoxicity against human HT-29 cells assessed as growth inhibition at 10 uM after 48 hrs by SRB assay; details: HT-29, 48 h, read-out: GI
ACHN = experiment: Cytotoxicity against human ACHN cells assessed as growth inhibition at 10 uM after 48 hrs by SRB assay; details: read-out: GI
[2] = Cytotoxicity against human NCI-ADR-RES cells assessed as growth inhibition at 10 uM after 48 hrs by SRB assay; details: read-out: GI
OVCAR-3 = experiment: Cytotoxicity against human OVCAR3 cells assessed as growth inhibition at 10 uM after 48 hrs by SRB assay; details: OVCAR-3, 48 h, read-out: GI
T47D = experiment: Cytotoxicity against human T47D cells assessed as growth inhibition at 10 uM after 48 hrs by SRB assay; details: read-out: GI
SK-MEL-2 = experiment: Cytotoxicity against human SK-MEL-2 cells assessed as growth inhibition at 10 uM after 48 hrs by SRB assay; details: SK-MEL-2, 48 h, read-out: GI
SW-620 = experiment: Cytotoxicity against human SW620 cells assessed as growth inhibition at 10 uM after 48 hrs by SRB assay; details: SW-620, 48 h, read-out: GI
A498 = experiment: Cytotoxicity against human A498 cells assessed as growth inhibition at 10 uM after 48 hrs by SRB assay; details: A498, 48 h, read-out: GI
SNB-19 = experiment: Cytotoxicity against human SNB19 cells assessed as growth inhibition at 10 uM after 48 hrs by SRB assay; details: SNB-19, 48 h, read-out: GI
HOP-92 = experiment: Cytotoxicity against human HOP92 cells assessed as growth inhibition at 10 uM after 48 hrs by SRB assay; details: HOP-92, 48 h, read-out: GI
DU-145 = experiment: Cytotoxicity against human DU145 cells assessed as growth inhibition at 10 uM after 48 hrs by SRB assay; details: DU-145, 48 h, read-out: GI
UACC-62 = experiment: Cytotoxicity against human UACC62 cells assessed as growth inhibition at 10 uM after 48 hrs by SRB assay; details: UACC-62, 48 h, read-out: GI
SR = experiment: Cytotoxicity against human SR cells assessed as growth inhibition at 10 uM after 48 hrs by SRB assay; details: read-out: GI
OVCAR-8 = experiment: Cytotoxicity against human OVCAR8 cells assessed as growth inhibition at 10 uM after 48 hrs by SRB assay; details: OVCAR-8, 48 h, read-out: GI
SK-MEL-5 = experiment: Cytotoxicity against human SK-MEL-5 cells assessed as growth inhibition at 10 uM after 48 hrs by SRB assay; details: SK-MEL-5, 48 h, read-out: GI
M14 = experiment: Cytotoxicity against human M14 cells assessed as growth inhibition at 10 uM after 48 hrs by SRB assay; details: M14, 48 h, read-out: GI
SNB-75 = experiment: Cytotoxicity against human SNB75 cells assessed as growth inhibition at 10 uM after 48 hrs by SRB assay; details: SNB-75, 48 h, read-out: GI

Row | Structure (SMILES) | inhibition of growth at 10 µM (NCI-H460) [%] | inhibition of growth at 10 µM (IGROV-1) [%] | inhibition of growth at 10 µM (SK-OV-3) [%] | inhibition of growth at 10 µM (HCT-15) [%] | inhibition of growth at 10 µM (MDA-MB-468) [%] | inhibition of growth at 10 µM (OVCAR-5) [%] | inhibition of growth at 10 µM (786-0) [%] | inhibition of growth at 10 µM (CCRF-CEM) [%] | inhibition of growth at 10 µM (MOLT-4) [%] | inhibition of growth at 10 µM (COLO 205) [%] | inhibition of growth at 10 µM (SF-268) [%] | inhibition of growth at 10 µM (MDA-MB-435) [%] | inhibition of growth at 10 µM [1] [%] | inhibition of growth at 10 µM (U-251) [%] | inhibition of growth at 10 µM (UACC-257) [%] | inhibition of growth at 10 µM (HOP-62) [%] | inhibition of growth at 10 µM (HCT-116) [%] | inhibition of growth at 10 µM (SN12C) [%] | inhibition of growth at 10 µM (NCI-H226) [%] | inhibition of growth at 10 µM (SK-MEL-28) [%] | further results
1 | O=C(Nc1ccccc1)Nc1ccc(OC2=NS(=O)(=O)c3ccccc32)cc1 | 21 | -12 | -13 | 48 | 20 | 13 | 26 | 41 | 32 | -9 | 6 | 15 | -3 | 21 | -1 | -11 | 10 | 18 | 20 | -2 | inhibition of growth at 10 µM (NCI-H522): 21%; inhibition of growth at 10 µM (HT-29): 52%; inhibition of growth at 10 µM (ACHN): 12%; inhibition of growth at 10 µM [2]: 21%; inhibition of growth at 10 µM (OVCAR-3): -9%; inhibition of growth at 10 µM (T47D): 23%; inhibition of growth at 10 µM (SK-MEL-2): -2%; inhibition of growth at 10 µM (SW-620): 2%; inhibition of growth at 10 µM (A498): 17%; inhibition of growth at 10 µM (SNB-19): -1%; inhibition of growth at 10 µM (HOP-92): 2%; inhibition of growth at 10 µM (DU-145): 18%; inhibition of growth at 10 µM (UACC-62): 21%; inhibition of growth at 10 µM (SR): 36%; inhibition of growth at 10 µM (OVCAR-8): 5%; inhibition of growth at 10 µM (SK-MEL-5): 17%; inhibition of growth at 10 µM (M14): 42%; inhibition of growth at 10 µM (SNB-75): 22%
2 | O=C(Nc1ccc(OC2=NS(=O)(=O)c3ccccc32)cc1)Nc1ccccc1Cl | -4 | 0 | -7 | 8 | 8 | 3 | 11 | 57 | 24 | -17 | 14 | 5 | -3 | 0 | -17 | -8 | 1 | 17 | 25 | -8 | inhibition of growth at 10 µM (NCI-H522): 10%; inhibition of growth at 10 µM (HT-29): 4%; inhibition of growth at 10 µM (ACHN): 21%; inhibition of growth at 10 µM [2]: 13%; inhibition of growth at 10 µM (OVCAR-3): 3%; inhibition of growth at 10 µM (T47D): 8%; inhibition of growth at 10 µM (SK-MEL-2): -1%; inhibition of growth at 10 µM (SW-620): -5%; inhibition of growth at 10 µM (A498): 5%; inhibition of growth at 10 µM (SNB-19): -9%; inhibition of growth at 10 µM (HOP-92): -3%; inhibition of growth at 10 µM (DU-145): 3%; inhibition of growth at 10 µM (UACC-62): 16%; inhibition of growth at 10 µM (SR): 9%; inhibition of growth at 10 µM (OVCAR-8): 1%; inhibition of growth at 10 µM (SK-MEL-5): 9%; inhibition of growth at 10 µM (M14): 2%; inhibition of growth at 10 µM (SNB-75): 18%
